How the values were obtained:
HDAC7 = biological target: T1, HDAC7 (Homo sapiens, UniProt Q8WUI4); assay: HDAC biochemical activity measurement (fluorescent substrate deacetylation);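 note: fluorogenic deacetylation assay using acetyl-lysine substrate at 20 µM, enzyme and compound incubated 30 min at 37 °C, then developer added, fluorescence read at 360/460 nm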; conditions: HDAC7; 37° C. 30 minutes
T1 sequence (Q8WUI4 1-952): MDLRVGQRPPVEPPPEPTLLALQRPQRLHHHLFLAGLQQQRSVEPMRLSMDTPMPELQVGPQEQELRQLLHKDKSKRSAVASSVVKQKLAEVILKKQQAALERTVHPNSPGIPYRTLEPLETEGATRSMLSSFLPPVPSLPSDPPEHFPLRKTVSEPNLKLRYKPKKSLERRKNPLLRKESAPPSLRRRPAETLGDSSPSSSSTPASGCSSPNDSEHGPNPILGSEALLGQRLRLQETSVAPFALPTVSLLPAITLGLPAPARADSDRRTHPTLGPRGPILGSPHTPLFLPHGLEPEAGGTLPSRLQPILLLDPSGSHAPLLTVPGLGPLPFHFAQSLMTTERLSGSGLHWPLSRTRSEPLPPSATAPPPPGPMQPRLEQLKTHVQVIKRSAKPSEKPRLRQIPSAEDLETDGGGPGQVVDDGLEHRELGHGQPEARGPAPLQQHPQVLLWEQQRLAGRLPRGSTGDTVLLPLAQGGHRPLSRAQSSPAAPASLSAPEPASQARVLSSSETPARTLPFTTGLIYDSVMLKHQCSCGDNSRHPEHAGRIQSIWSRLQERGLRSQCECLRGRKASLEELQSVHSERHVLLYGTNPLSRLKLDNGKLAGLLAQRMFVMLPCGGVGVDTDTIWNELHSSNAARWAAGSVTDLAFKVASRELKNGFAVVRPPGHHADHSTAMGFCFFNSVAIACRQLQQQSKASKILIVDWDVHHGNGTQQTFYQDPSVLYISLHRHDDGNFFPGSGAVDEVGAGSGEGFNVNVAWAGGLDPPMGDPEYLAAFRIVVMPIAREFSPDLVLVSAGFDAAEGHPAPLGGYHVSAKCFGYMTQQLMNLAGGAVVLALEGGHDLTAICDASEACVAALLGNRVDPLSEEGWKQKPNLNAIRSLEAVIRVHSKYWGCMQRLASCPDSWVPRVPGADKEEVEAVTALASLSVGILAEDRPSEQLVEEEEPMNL

[1] = system: A549 (human lung cancer cells); assay: MTT cancer cell growth inhibition; assay type: cell-based; conditions: Homo sapiens, A549, 72 h, A549 cells, MTT, 72 hours incubation; read-out: GI50 A54
Procedure, shortened: (§1)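 Using a 72 h MTT format, triplicate wells of 1500 cells received compound concentrations from 10^−5 to 10^−10 M. Formazan was read at 570 nm after DMSO dissolution, and GI50 was derived from viability.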

[2] = system: BGC-823 (human gastric cancer cells); assay: MTT cancer cell growth inhibition; assay type: cell-based; conditions: Homo sapiens, BGC-823, 72 h, BGC-823 cells, MTT, 72 hours incubation; read-out: GI50 BG
Procedure, shortened: as §1

[3] = system: Bel-7402 (human hepatoma cells); assay: MTT cancer cell growth inhibition; assay type: cell-based; conditions: Homo sapiens, Bel-7402, 72 h, MTT, 72 hours incubation, Bel-7402 cells; read-out: GI50 Bel-7402
Procedure, shortened: as §1

[4] = system: DU145 (human prostate cancer cells); assay: MTT cancer cell growth inhibition; assay type: cell-based; conditions: Homo sapiens, DU-145, 72 h, DU145 cells, MTT, 72 hours incubation; read-out: GI50 Du1
Procedure, shortened: as §1

[5] = system: H1975 (non-small cell lung adenocarcinoma); assay: MTT cancer cell growth inhibition; assay type: cell-based; conditions: Homo sapiens, NCI-H1975, 72 h, MTT, 72 hours incubation, H1975 cells; read-out: GI50 H1975
Procedure, shortened: as §1

[6] = system: HCC827 (human non-small cell lung cancer cells); assay: MTT cancer cell growth inhibition; assay type: cell-based; conditions: Homo sapiens, HCC827, 72 h, MTT, 72 hours incubation, HCC827 cells; read-out: GI50 HCC827
Procedure, shortened: as §1

[7] = system: HT1080 (human fibrosarcoma cells); assay: MTT cancer cell growth inhibition; assay type: cell-based; conditions: Homo sapiens, HT-1080, 72 h, HT1080 cells, MTT, 72 hours incubation; read-out: GI50 HT1
Procedure, shortened: as §1

[8] = system: Hela (human cervical cancer cells); assay: MTT cancer cell growth inhibition; assay type: cell-based; conditions: Homo sapiens, HeLa, 72 h, Hela cells, MTT, 72 hours incubation; read-out: GI50 Hela
Procedure, shortened: as §1

[9] = system: Huh-7 (human hepatoma cells); assay: MTT cancer cell growth inhibition; assay type: cell-based; conditions: Homo sapiens, Huh-7, 72 h, MTT, 72 hours incubation, Huh-7 cells; read-out: GI50 Huh-7
Procedure, shortened: as §1

[10] = system: K562 (human leukemia cells); assay: MTT cancer cell growth inhibition; assay type: cell-based; conditions: Homo sapiens, K562, 72 h, MTT, 72 hours incubation, K562 cells; read-out: GI50 K562
Procedure, shortened: as §1

[11] = system: KBM-5 (human chronic myelogenous leukemia); assay: MTT cancer cell growth inhibition; assay type: cell-based; conditions: Homo sapiens, KBM5, 72 h, MTT, 72 hours incubation, KBM-5 cells; read-out: GI50 KBM-5
Procedure, shortened: as §1

[12] = system: KBM5-T315I (human chronic myelogenous leukemia); assay: MTT cancer cell growth inhibition; assay type: cell-based; conditions: Homo sapiens, 72 h, MTT, 72 hours incubation, KBM5-T315I cells; read-out: GI50 KBM5-T315I
Procedure, shortened: as §1

[13] = system: MCF-7 (human breast cancer cells); assay: MTT cancer cell growth inhibition; assay type: cell-based; conditions: Homo sapiens, MCF7, 72 h, MCF-7 cells, 72 hours incubation, read-out: GI50 MCF
Procedure, shortened: as §1

[14] = system: MDA-MB-231 (breast cancer cells); assay: MTT cancer cell growth inhibition; assay type: cell-based; conditions: Homo sapiens, MDA-MB-231, 72 h, read-out: GI50 MDA-MB-231, MTT, 72 hours incubation, MDA-MB-231 cells
Procedure, shortened: as §1

[15] = system: MOLT-4 (human acute lymphoblastic leukemia cells); assay: MTT cancer cell growth inhibition; assay type: cell-based; conditions: Homo sapiens, MOLT-4, 72 h, MOLT-4 cells, MTT, 72 hours incubation; read-out: GI50 Mol
Procedure, shortened: as §1

[16] = system: N-87 (human gastric cancer cells); assay: MTT cancer cell growth inhibition; assay type: cell-based; conditions: Homo sapiens, 72 h, MTT, 72 hours incubation, N-87 cells; read-out: GI50 N-87
Procedure, shortened: as §1

[17] = system: PANC-1 (Pac-1, human pancreatic cancer cells); assay: MTT cancer cell growth inhibition; assay type: cell-based; conditions: Homo sapiens, PANC-1, 72 h, PANC-1 cells, MTT, 72 hours incubation; read-out: GI50 PAN
Procedure, shortened: as §1

[18] = system: SGC-7901 (human gastric cancer cells); assay: MTT cancer cell growth inhibition; assay type: cell-based; conditions: Homo sapiens, SGC-7901, 72 h, MTT, 72 hours incubation, SGC-7901 cells; read-out: GI50 SGC-7901
Procedure, shortened: as §1

[19] = system: U937 (human leukemia cells); assay: MTT cancer cell growth inhibition; assay type: cell-based; conditions: Homo sapiens, U-937, 72 h, U937 cells, MTT, 72 hours incubation; read-out: GI50 U93
Procedure, shortened: as §1

[20] = system: lncap (prostate cancer cells); assay: MTT cancer cell growth inhibition; assay type: cell-based; conditions: Homo sapiens, LNCaP, 72 h, lncap cells, MTT, 72 hours incubation; read-out: GI50 lnca
Procedure, shortened: as §1

SMILES | IC50 HDAC7 (HDAC7) | GI50 [1] [µM] | GI50 [2] [µM] | GI50 [3] [µM] | GI50 [4] [µM] | GI50 [5] [µM] | GI50 [6] [µM] | GI50 [7] [µM] | GI50 [8] [µM] | GI50 [9] [µM] | GI50 [10] [µM] | GI50 [11] [µM] | GI50 [12] [µM] | GI50 [13] [µM] | GI50 [14] [µM] | GI50 [15] [µM] | GI50 [16] [µM] | GI50 [17] [µM] | GI50 [18] [µM] | GI50 [19] [µM] | other results
C/C=C1\NC(=O)c2ccc(SC)c(n2)CNC(=O)C[C@@H](/C=C/CCSC(C)=O)OC(=O)[C@H](Cc2cccc3ccccc23)NC1=O [Compound 200] | no activity | 0.02 | 0.08 | 0.026 | 0.06 | 0.059 | 0.045 | 0.04 | 0.03 | 0.026 | 0.107 | 0.028 | 0.034 | 0.03 | 0.046 | 0.04 | 0.039 | 0.07 | 0.058 | 0.05 | GI50 [20]: 0.08 µM
C/C=C1\NC(=O)c2nc(ccc2SC)CNC(=O)C[C@@H](/C=C/CCSC(C)=O)OC(=O)[C@H](Cc2ccc(O)cc2)NC1=O [Compound 201] | no activity | 0.03 | 0.05 | 0.069 | 0.03 | 0.073 | 0.011 | 0.06 | 0.03 | 0.09 | 0.035 | 0.029 | 0.035 | 0.04 | 0.038 | 0.02 | 0.032 | 0.06 | 0.051 | 0.04 | GI50 [20]: 0.07 µM
C/C=C1\NC(=O)c2cc(SC)cc(n2)CNC(=O)C[C@@H](/C=C/CCSC(C)=O)OC(=O)[C@H](Cc2ccc(O)cc2)NC1=O [Compound 202] | no activity | 0.05 | 0.04 | 0.076 | 0.07 | 0.058 | 0.032 | 0.03 | 0.02 | 0.031 | 0.015 | 0.038 | 0.026 | 0.03 | 0.041 | 0.05 | 0.029 | 0.03 | 0.031 | 0.02 | GI50 [20]: 0.02 µM
C/C=C1\NC(=O)c2ccc(SC)c(n2)CNC(=O)C[C@@H](/C=C/CCSC(C)=O)OC(=O)[C@H](Cc2ccc(O)cc2)NC1=O [Compound 203] | no activity | 0.03 | 0.08 | 0.023 | 0.04 | 0.065 | 0.023 | 0.06 | 0.03 | 0.022 | 0.035 | 0.053 | 0.026 | 0.04 | 0.073 | 0.03 | 0.077 | 0.03 | 0.043 | 0.02 | GI50 [20]: 0.03 µM
C=C1NC(=O)c2nc(ccc2SC)CNC(=O)C[C@@H](/C=C/CCSC(C)=O)OC(=O)[C@H](C(C)C)NC1=O [Compound 204] | no activity | 0.03 | 0.02 | 0.036 | 0.05 | 0.067 | 0.037 | 0.03 | 0.06 | 0.083 | 0.028 | 0.063 | 0.019 | 0.03 | 0.056 | 0.04 | 0.028 | 0.02 | 0.073 | 0.02 | GI50 [20]: 0.05 µM
CSc1ccc2nc1C(=O)NC(=C(C)C)C(=O)N[C@@H](C(C)C)C(=O)O[C@H](/C=C/CCSC(C)=O)CC(=O)NC2 [Compound 207] | no activity | 0.03 | 0.03 | 0.027 | 0.03 | 0.046 | 0.055 | 0.03 | 0.02 | 0.033 | 0.048 | 0.038 | 0.021 | 0.04 | 0.079 | 0.01 | 0.019 | 0.05 | 0.057 | 0.04 | GI50 [20]: 0.05 µM
CSc1cc2nc(c1)C(=O)NC(=C(C)C)C(=O)N[C@@H](C(C)C)C(=O)O[C@H](/C=C/CCSC(C)=O)CC(=O)NC2 [Compound 208] | no activity | 0.05 | 0.05 | 0.017 | 0.04 | 0.035 | 0.067 | 0.07 | 0.08 | 0.026 | 0.076 | 0.018 | 0.049 | 0.03 | 0.018 | 0.04 | 0.056 | 0.03 | 0.026 | 0.06 | GI50 [20]: 0.03 µM

— patent US10065990B2, “Cyclic peptide compound, and preparation method, pharmaceutical composition and use thereof” (HANGZHOU GUANYU BIO-MEDICAL CO., LTD, priority 2013, dated 2018)
